Test results published in PMC9481570, “A small molecule antagonist of SMN disrupts the interaction between SMN and RNAP II” (Nature Communications, 2022).
Values joined by “and” are separate entries in the source; they are usually repeats but may differ in a detail not shown here. Equal entries are not always repeated.

Tests used:
Assay in all cases: Affinity-purification and mass spectrometry (AP-MS) chemical proteomics, all proteins;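 as to Difference: 200 µM free competitor with 20 µM biotin probe overnight in lysate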
Type in all cases: binding
[1] = molecular target: T1, proteins displaced from immobilized biotin-Cmpd 1 pulldowns (U2OS cell lysate) (Homo sapiens, UniProt O43660); details: GN=PLRG1 (O43660)
T1 construct: endogenous in cells; host or cells: U2OS
T1 sequence (O43660 whole entry): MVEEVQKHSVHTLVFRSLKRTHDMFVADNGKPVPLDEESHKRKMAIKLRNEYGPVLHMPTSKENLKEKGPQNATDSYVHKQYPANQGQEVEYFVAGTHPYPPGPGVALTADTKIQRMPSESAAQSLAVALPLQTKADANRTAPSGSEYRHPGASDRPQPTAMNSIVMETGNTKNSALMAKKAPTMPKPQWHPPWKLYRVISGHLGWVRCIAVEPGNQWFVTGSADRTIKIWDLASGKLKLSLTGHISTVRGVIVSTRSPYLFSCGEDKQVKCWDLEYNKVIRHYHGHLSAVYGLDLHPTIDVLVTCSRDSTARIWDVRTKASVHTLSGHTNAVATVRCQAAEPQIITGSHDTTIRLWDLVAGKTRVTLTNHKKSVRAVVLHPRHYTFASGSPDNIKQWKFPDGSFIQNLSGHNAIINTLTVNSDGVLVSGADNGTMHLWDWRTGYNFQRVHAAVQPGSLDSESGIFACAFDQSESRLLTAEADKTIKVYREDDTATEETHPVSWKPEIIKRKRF

[2] = molecular target: T2, proteins displaced from immobilized biotin-Cmpd 1 pulldowns (U2OS cell lysate) (Homo sapiens, UniProt O75683); details: GN=SURF6 (O75683)
T2 construct: endogenous in cells; host or cells: U2OS
T2 sequence (O75683 whole entry): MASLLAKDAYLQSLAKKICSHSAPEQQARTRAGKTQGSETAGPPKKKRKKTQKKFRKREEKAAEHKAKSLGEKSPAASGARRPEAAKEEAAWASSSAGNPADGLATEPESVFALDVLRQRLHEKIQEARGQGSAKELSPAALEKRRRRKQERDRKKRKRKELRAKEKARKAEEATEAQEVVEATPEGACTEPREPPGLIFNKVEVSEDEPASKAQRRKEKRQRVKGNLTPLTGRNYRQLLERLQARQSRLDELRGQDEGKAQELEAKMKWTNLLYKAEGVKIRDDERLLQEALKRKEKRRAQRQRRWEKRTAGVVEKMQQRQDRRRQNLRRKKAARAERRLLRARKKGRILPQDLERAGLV

[3] = molecular target: T3, proteins displaced from immobilized biotin-Cmpd 1 pulldowns (U2OS cell lysate) (Homo sapiens, UniProt P19367); details: GN=HK1 (P19367)
T3 construct: endogenous in cells; host or cells: U2OS

[4] = molecular target: T4, proteins displaced from immobilized biotin-Cmpd 1 pulldowns (U2OS cell lysate) (Homo sapiens, UniProt P20700); details: GN=LMNB1 (P20700)
T4 construct: endogenous in cells; host or cells: U2OS
T4 sequence (P20700 whole entry): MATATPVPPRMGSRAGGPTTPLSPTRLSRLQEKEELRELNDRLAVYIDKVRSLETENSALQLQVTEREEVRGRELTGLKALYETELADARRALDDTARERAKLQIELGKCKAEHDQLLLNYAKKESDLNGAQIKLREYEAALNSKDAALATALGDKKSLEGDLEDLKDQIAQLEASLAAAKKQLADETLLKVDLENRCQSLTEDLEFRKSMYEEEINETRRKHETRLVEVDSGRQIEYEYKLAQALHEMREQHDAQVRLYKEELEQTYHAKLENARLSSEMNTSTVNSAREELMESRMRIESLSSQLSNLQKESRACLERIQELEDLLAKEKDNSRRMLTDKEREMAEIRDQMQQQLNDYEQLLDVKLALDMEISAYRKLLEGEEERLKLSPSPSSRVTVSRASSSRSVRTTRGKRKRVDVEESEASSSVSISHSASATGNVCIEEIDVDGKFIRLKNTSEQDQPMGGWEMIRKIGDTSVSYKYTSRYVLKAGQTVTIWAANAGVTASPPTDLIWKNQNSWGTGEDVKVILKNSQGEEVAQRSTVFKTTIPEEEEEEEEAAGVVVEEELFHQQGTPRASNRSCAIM

[5] = molecular target: T5, proteins displaced from immobilized biotin-Cmpd 1 pulldowns (U2OS cell lysate) (Homo sapiens, UniProt P49368); details: GN=CCT3 (P49368)
T5 construct: endogenous in cells; host or cells: U2OS

[6] = molecular target: T6, proteins displaced from immobilized biotin-Cmpd 1 pulldowns (U2OS cell lysate) (Homo sapiens, UniProt P60174); details: GN=TPI1 (P60174)
T6 construct: endogenous in cells; host or cells: U2OS
T6 sequence (P60174 whole entry): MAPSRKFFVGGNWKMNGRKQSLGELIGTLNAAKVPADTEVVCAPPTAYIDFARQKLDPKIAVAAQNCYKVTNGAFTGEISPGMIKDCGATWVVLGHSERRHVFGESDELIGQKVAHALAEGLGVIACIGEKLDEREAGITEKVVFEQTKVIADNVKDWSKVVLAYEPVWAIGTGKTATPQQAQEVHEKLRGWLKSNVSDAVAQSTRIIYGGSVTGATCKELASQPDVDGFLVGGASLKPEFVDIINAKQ

[7] = molecular target: T7, proteins displaced from immobilized biotin-Cmpd 1 pulldowns (U2OS cell lysate) (Homo sapiens, UniProt Q14980); details: GN=NUMA1 (Q14980)
T7 construct: endogenous in cells; host or cells: U2OS
T7 sequence (Q14980 whole entry): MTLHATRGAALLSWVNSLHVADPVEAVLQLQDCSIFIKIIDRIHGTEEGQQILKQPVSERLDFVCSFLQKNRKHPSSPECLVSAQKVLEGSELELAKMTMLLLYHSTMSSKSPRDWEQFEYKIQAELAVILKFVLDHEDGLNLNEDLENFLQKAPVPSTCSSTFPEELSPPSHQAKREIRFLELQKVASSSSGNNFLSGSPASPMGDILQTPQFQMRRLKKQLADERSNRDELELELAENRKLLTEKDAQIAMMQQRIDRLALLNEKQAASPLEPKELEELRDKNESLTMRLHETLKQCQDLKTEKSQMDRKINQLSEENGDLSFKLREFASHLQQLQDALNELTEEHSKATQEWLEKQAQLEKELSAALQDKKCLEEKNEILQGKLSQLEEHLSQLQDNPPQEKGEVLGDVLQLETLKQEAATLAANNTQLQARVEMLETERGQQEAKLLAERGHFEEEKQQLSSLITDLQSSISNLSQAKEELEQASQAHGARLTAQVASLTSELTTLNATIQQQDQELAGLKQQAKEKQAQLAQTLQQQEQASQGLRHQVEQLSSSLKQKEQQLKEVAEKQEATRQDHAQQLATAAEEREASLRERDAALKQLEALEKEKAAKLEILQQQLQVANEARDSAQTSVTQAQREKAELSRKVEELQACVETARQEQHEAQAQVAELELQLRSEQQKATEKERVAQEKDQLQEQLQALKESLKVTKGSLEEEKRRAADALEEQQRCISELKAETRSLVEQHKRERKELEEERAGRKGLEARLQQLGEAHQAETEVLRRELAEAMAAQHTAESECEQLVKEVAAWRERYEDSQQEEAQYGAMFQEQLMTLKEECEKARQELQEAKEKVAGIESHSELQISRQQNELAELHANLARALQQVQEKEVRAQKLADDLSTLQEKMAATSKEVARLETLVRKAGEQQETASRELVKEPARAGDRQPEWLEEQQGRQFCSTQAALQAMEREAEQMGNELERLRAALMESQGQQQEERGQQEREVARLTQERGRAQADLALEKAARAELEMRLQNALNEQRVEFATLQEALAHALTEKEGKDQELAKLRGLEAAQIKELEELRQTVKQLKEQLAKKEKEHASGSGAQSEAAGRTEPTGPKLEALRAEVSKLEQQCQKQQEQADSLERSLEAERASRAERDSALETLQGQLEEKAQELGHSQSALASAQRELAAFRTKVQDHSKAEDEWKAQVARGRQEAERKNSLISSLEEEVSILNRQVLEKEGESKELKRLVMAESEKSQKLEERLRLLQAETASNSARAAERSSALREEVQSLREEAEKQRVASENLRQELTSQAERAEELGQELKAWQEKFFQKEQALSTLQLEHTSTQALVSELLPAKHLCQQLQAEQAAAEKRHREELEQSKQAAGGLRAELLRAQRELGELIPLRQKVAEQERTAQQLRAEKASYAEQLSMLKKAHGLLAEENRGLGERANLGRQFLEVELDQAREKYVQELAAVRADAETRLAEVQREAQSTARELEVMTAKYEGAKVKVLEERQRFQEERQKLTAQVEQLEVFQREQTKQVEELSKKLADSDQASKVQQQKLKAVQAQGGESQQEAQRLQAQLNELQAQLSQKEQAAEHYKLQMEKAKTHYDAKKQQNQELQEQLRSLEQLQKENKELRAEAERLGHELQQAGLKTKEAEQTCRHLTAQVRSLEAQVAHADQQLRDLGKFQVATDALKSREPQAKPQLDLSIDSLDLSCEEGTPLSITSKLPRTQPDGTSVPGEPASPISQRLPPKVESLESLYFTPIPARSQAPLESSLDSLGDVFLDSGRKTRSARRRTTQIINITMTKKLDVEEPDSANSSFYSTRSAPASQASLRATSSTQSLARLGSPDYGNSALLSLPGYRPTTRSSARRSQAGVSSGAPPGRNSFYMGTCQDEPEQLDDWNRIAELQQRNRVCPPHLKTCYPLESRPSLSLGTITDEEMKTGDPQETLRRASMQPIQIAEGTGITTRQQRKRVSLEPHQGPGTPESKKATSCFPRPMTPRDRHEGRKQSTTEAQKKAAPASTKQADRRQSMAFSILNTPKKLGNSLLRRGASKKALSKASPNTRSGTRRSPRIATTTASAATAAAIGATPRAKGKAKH

[8] = molecular target: T8, proteins displaced from immobilized biotin-Cmpd 1 pulldowns (U2OS cell lysate) (Homo sapiens, UniProt Q15050); details: GN=RRS1 (Q15050)
T8 construct: endogenous in cells; host or cells: U2OS
T8 sequence (Q15050 whole entry): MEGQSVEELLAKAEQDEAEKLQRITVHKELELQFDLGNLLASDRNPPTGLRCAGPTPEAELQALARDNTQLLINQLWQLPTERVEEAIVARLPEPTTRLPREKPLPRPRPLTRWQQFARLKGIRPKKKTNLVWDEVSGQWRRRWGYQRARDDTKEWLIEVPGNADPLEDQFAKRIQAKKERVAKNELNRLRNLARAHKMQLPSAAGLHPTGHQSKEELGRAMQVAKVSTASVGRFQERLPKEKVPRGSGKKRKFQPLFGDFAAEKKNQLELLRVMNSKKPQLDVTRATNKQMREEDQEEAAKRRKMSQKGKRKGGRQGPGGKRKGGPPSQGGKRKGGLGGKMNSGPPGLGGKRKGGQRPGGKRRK

[9] = molecular target: T9, proteins displaced from immobilized biotin-Cmpd 1 pulldowns (U2OS cell lysate) (Homo sapiens, UniProt Q96EY1); details: GN=DNAJA3 (Q96EY1)
T9 construct: endogenous in cells; host or cells: U2OS
T9 sequence (Q96EY1 whole entry): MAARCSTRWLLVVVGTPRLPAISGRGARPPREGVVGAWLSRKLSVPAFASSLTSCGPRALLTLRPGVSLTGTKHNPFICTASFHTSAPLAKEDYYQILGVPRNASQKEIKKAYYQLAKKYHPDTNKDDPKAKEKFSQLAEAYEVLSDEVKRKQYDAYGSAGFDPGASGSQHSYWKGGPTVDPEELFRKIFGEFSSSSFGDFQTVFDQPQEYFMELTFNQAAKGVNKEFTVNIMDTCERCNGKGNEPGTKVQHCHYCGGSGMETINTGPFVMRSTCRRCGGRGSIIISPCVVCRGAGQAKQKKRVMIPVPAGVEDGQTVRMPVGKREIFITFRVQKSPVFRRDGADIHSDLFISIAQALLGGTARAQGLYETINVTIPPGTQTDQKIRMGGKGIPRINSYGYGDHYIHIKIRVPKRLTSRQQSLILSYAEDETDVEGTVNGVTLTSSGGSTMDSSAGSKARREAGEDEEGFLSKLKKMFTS

[10] = molecular target: T10, proteins displaced from immobilized biotin-Cmpd 1 pulldowns (U2OS cell lysate) (Homo sapiens, UniProt Q9UKD2); details: GN=MRTO4 (Q9UKD2)
T10 construct: endogenous in cells; host or cells: U2OS

Q: With Cn1c2c(c(=N)c3c1CCC3)CCC2 [Compound 1, 4-methyl-2,3,4,5,6,7-hexahydrodicyclopenta[b,e]pyridin-8(1H)-imine] as the compound, how does the Difference ([1]; Cmpd minus DMSO, -LOG(P-value) 0.874244) read?
A: The Difference was 2.0669.

Q: What about the “iBAQ Cmpd” value ([1]; replicates 1-3) of the same compound?
A: The value was 19.5697 and 18.4715 and 18.0629.

Q: What about the Difference ([2]; Cmpd minus DMSO, -LOG(P-value) 1.38004) of the same compound?
A: The Difference was 2.68.

Q: And the “iBAQ Cmpd” value ([2]; replicates 1-3)?
A: The value was 19.6513 and 20.3325 and 21.9506.

Q: What about the Difference ([3]; Cmpd minus DMSO, -LOG(P-value) 0.855582) of the same compound?
A: The Difference was 0.9514.

Q: And the “iBAQ Cmpd” value ([3]; replicates 1-3)?
A: The value was 18.5229 and 17.0452 and 17.0803.

Q: What about the Difference ([4]; Cmpd minus DMSO, -LOG(P-value) 0.765149) of the same compound?
A: Its Difference is 0.6571.

Q: What about the “iBAQ Cmpd” value ([4]; replicates 1-3) of the same compound?
A: Its value is 20.5307 and 20.0559 and 19.5746.

Q: What about the Difference ([5]; Cmpd minus DMSO, -LOG(P-value) 0.937615) of the same compound?
A: The Difference was 0.5386.

Q: And the “iBAQ Cmpd” value ([5]; replicates 1-3)?
A: Its value is 20.7218 and 21.2363 and 20.6211.

Q: What about the Difference ([6]; Cmpd minus DMSO, -LOG(P-value) 0.713184) of the same compound?
A: The Difference was -0.9556.

Q: And the “iBAQ Cmpd” value ([6]; replicates 1-3)?
A: Its value is 17.6148 and 17.9108 and 16.6151.

Q: And the Difference ([7]; Cmpd minus DMSO, -LOG(P-value) 0.722853)?
A: The Difference was 1.264.

Q: What about the “iBAQ Cmpd” value ([7]; replicates 1-3) of the same compound?
A: Its value is 20.9325 and 19.3521 and 19.3092.

Q: And the Difference ([8]; Cmpd minus DMSO, -LOG(P-value) 0.720694)?
A: Its Difference is 2.281.

Q: What about the “iBAQ Cmpd” value ([8]; replicates 1-3) of the same compound?
A: The value was 15.4548 and 18.445 and 19.3119.

Q: What about the Difference ([9]; Cmpd minus DMSO, -LOG(P-value) 0.746444) of the same compound?
A: The Difference was 0.8281.

Q: What about the “iBAQ Cmpd” value ([9]; replicates 1-3) of the same compound?
A: Its value is 17.7043 and 17.5809 and 17.383.

Q: And the Difference ([10]; Cmpd minus DMSO, -LOG(P-value) 1.00789)?
A: The Difference was 2.584.

Q: And the “iBAQ Cmpd” value ([10]; replicates 1-3)?
A: The value was 18.8307 and 17.054 and 17.709.
